{
  "source": "paper PMC6206036",
  "about": "“Locking loop movement in the ubiquinone pocket of complex I disengages the proton pumps” (Nature Communications, 2018)",
  "molecules": {"B1": {"name": "Complex I (proton-pumping NADH:ubiquinone oxidoreductase) (Yarrowia lipolytica CLIB122) (protein)", "chain 1": "MATTALPQDPIPSGALGQKVPHVDESHQDLLFRTSHMVEDLETYDEDSPINTSDANTRIRAFTINFGPQHPAAHGVLRLILELSGEEIIRSDPHVGLLHRGTEKLIEYKTYMQALPYFDRLDYVSMMTNEQVFSLAVEKLLNVEVPLRGKYIRTMFGEITRVLNHLMSVCSHAMDVGALTPFLWGFEEREKLMEFYERVSGARLHAAYVRPGGVSQDLPAGLLDDIYMWATQFGDRLDEIEELLTDNRIWKLRTVNIGTVTAQDALNLGLSGPMLRGSGIPFDIRKNAPYDAYDKVDFDVPVGMNGDCYDRYLIRMAEFRQSLRIIEQCCNDMPAGAVKVEDFKINSPPRNLMKEDMEALIHHFLLYTKGYSVPPGETYTAIEAPKGEMGVYVVSDGSERPYKCKIRAPGFAHLGAFDHIARGHFLPDAVAIIGTMDLVFGEVDR", "chain 2": "SAPAGTPRVSSSSMPTDFPLPSQQKPNSAVDYTLTTLDAVANWARQGSFWPVTFGLACCAVEMMHVSAPRYDQDRLGIIFRASPRQSDIMIVAGTLTNKMAPVLRQVYDQMPEPRWVISMGSCANGGGYYHFSYSVVRGCDRIVPVDVYVPGCPPTSEALMYGVFQLQRKMRNTKITRMWYRK", "chain 3": "MIINIVEILIFLVCVLFSVAYLTVAERKTLAYMQRRLGPNFVGYYGLLQAFADAVKLLLKEIVLPKESNYIILVISPLITLITALIGWVVIPLGPGITLGELNLGILFSLAIGSLGVFGSLLSGWSSNSKYSLLGSIRSTAQLISYELILTSIFIIIIMFVSSLNITTIIETQRVVWYCIPLLPLLLIFFIASVAETARPPFDLTESESELVAGYFTEYSGSPFVFFFLAEYSNIILISAFNGYLLLGGYLSFNYSYLFNILFNDYSYVSFLFEGLINSSAYAIKLVFLMFSFIWVRAAFPRFTYDNLINFCWIILLPLLFGIFLIIPSTLYIFDSFPTLI", "chain 4": "MNTFIIFIILIPIVGFALLAVNILLAVYKPYNEKLGAFECGLTSFNQTRLAFNAAFILVAILFLPFDLEISTLLPYVMSIYLVSNYGFTIVLLFLLILIIGFVYEINTNALKINKHNKPNTDSLIYKL", "notes": "native complete respiratory complex I in unsealed mitochondrial membranes; nugm-Htg2 (tagged NUGM) strain background; NUKM expressed from replicative plasmid pUB4 under endogenous promoter; 14 central plus accessory subunits; with NADH-ubiquinone oxidoreductase 51 kDa subunit, mitochondrial"}},
  "key": {"[1]": {"molecular_target": "T1, Complex I (proton-pumping NADH:ubiquinone oxidoreductase) (Yarrowia lipolytica, UniProt Q9B6C7+Q9B6E8+Q9UUT7+Q9UUU1)", "T1 construct": "gene nucm; native complete respiratory complex I in unsealed mitochondrial membranes; nugm-Htg2 (tagged NUGM) strain background; NUKM expressed from replicative plasmid pUB4 under endogenous promoter; 14 central plus accessory subunits; with NADH-ubiquinone oxidoreductase 51 kDa subunit, mitochondrial", "experiment": "dNADH:DBQ oxidoreductase activity at […] nm, mitochondrial membranes", "assay_type": "biochemical", "conditions": "100 µM dNADH, DBQ 0-100 µM, pH 8.5, 25 °C; membranes preincubated with 5 mM DTT for 5 min (ND3-PSST disulfide reduced); read-out: K M ^d /"}, "[2]": {"molecular_target": "T1, Complex I (proton-pumping NADH:ubiquinone oxidoreductase)", "experiment": "inhibition of dNADH:DBQ oxidoreductase activity, mitochondrial membranes", "assay_type": "biochemical", "excerpt": "inhibition of dNADH:DBQ oxidoreductase activity, mitochondrial membranes on Complex I (proton-pumping NADH:ubiquinone oxidoreductase)"}, "[3]": {"substrate": "CCCCCCCCCCC1=C(C)C(=O)C(OC)=C(OC)C1=O", "experiment": "cells, lysate or membranes", "assay_type": "biochemical, Yarrowia lipolytica", "conditions": "100 µM dNADH, DBQ 0-100 µM, pH 8.5, 25 °C, membranes preincubated with 5 mM DTT for 5 min"}},
  "note": "Like-named read-outs stand apart in the source and are kept apart here.",
  "data": [
    {"molecule": "CCCCCCCCCCC1=C(C)C(=O)C(OC)=C(OC)C1=O", "note": "[DBQ, decylubiquinone]", "values": [
      {"measurement": "Km", "setting": "[1]", "value": "19 ± 3", "unit": "µM"}
    ]},
    {"molecule": "CCCCCCCCCCc1nc(N)c2ccccc2n1", "note": "[DQA, 2-n-decyl-quinazolin-4-yl-amine]", "values": [
      {"measurement": "IC50", "setting": "[2]; 100 µM dNADH, 100 µM DBQ, pH 8.5, 25 °C, membranes preincubated with 5 mM DTT for 5 min (ND3-PSST disulfide reduced)", "value": "0.013 ± 0.003", "unit": "µM"},
      {"measurement": "IC50", "setting": "[2]; 100 µM dNADH, 100 µM DBQ, pH 8.5, 25 °C, membranes preincubated with 5 mM DTT for 5 min, read-out: IC50^e / DQA /", "value": "0.016 ± 0.003", "unit": "µM"}
    ]},
    {"molecule": "C=C(C)[C@H]1Cc2c(ccc3c2O[C@@H]2COc4cc(OC)c(OC)cc4[C@@H]2C3=O)O1", "note": "[rotenone]", "values": [
      {"measurement": "IC50", "setting": "[2]; read-out: IC50^e / Rotenone /", "value": "0.56 ± 0.055", "unit": "µM"}
    ]},
    {"molecule": "B1", "values": [
      {"measurement": "Km", "setting": "[3]", "value": "17 ± 3", "unit": "µM"},
      {"measurement": "Vmax", "setting": "[3]", "value": 0.16, "unit": "µmol/min/mg"}
    ]}
  ]
}
